Data reported in ChEMBL document CHEMBL1152147, “Design at the atomic level: design of biaryloxazolidinones as potent orally active antibiotics” (Bioorg Med Chem Lett, 2008).
Values after ≈ are worked out from the molar mass of the structure shown.

Key:
[1] = test system: Enterococcus faecalis; assay: Antimicrobial activity against Linezolid-resistant Enterococcus faecalis ATCC 29212-P5 by NCCLS method; assay type: functional
[2] = test system: Haemophilus influenzae; assay: Antimicrobial activity against Haemophilus influenzae by NCCLS method; assay type: functional
[3] = test system: Staphylococcus aureus; assay: Antimicrobial activity against methicillin-resistant Staphylococcus aureus 67-0 by NCCLS method; assay type: functional
[4] = test system: Streptococcus pneumoniae; assay: Antimicrobial activity against mef (A) expressing Streptococcus pneumoniae 02J1175 by NCCLS method; assay type: functional
[5] = test system: Haemophilus influenzae; assay: Antimicrobial activity against Haemophilus influenzae parent strain RD1 by NCCLS method; assay type: functional
[6] = test system: Haemophilus influenzae; assay: Antimicrobial activity against Haemophilus influenzae 1100 by NCCLS method; assay type: functional
[7] = test system: Streptococcus pyogenes; assay: Antimicrobial activity against erm (B) Streptococcus pyogenes msr610 by NCCLS method; assay type: functional
[8] = test system: Enterococcus faecalis; assay: Antimicrobial activity against vanB+ expressing Enterococcus faecalis 1069 by NCCLS method; assay type: functional
[9] = test system: Enterococcus faecium; assay: Antimicrobial activity against vanA+ expressing Enterococcus faecium A6349 by NCCLS method
[10] = test system: Streptococcus pneumoniae; assay: Antimicrobial activity against erm (B) expressing Streptococcus pneumoniae 02J1258 + L4 by NCCLS method; assay type: functional
[11] = test system: Haemophilus influenzae; assay: Antimicrobial activity against Haemophilus influenzae A1950 by NCCLS method; assay type: functional
[12] = test system: Haemophilus influenzae; assay: Antimicrobial activity against Haemophilus influenzae 895 (AcrB-KO) by NCCLS method; assay type: functional
[13] = test system: Enterococcus faecalis; assay: Antimicrobial activity against Linezolid-resistant Enterococcus faecalis P5 by NCCLS method; assay type: functional
[14] = test system: Streptococcus pyogenes; assay: Antimicrobial activity against erm (B) expressing Streptococcus pyogenes Msr 610 by NCCLS method; assay type: functional
[15] = test system: Escherichia coli; assay: Inhibition of Escherichia coli translation; assay type: functional, organism-based

SMILES | MIC [1] | MIC [2] | MIC [3] | MIC [4] | MIC [5] | MIC [6] | MIC [7] | MIC [8] | MIC [9] | MIC [10] | MIC [11] | MIC [12] | MIC [13] | MIC [14] | IC50 [15]
CC(=O)NC[C@H]1CN(c2ccc(-c3ccc(CNCC#N)cc3)c(F)c2)C(=O)O1 | 1 µg/mL (≈ 2.52 µM) | 8 µg/mL (≈ 20.2 µM) | 0.5 µg/mL (≈ 1.26 µM) | 0.25 µg/mL (≈ 0.631 µM) | 4 µg/mL (≈ 10.1 µM) | 4 µg/mL (≈ 10.1 µM) | 0.25 µg/mL (≈ 0.631 µM) | ≤ 0.25 µg/mL | 1 µg/mL (≈ 2.52 µM) | 0.25 µg/mL | 8 µg/mL (≈ 20.2 µM) | – | – | – | –
CC(=O)NC[C@H]1CN(c2ccc(-c3ccc(Cn4ccnn4)cc3)c(F)c2)C(=O)O1 | 1 µg/mL (≈ 2.44 µM) | 4 µg/mL (≈ 9.77 µM) | 0.5 µg/mL (≈ 1.22 µM) | 0.5 µg/mL (≈ 1.22 µM) | 4 µg/mL (≈ 9.77 µM) | 2 µg/mL (≈ 4.88 µM) | 0.5 µg/mL (≈ 1.22 µM) | 0.5 µg/mL (≈ 1.22 µM) | 1 µg/mL (≈ 2.44 µM) | 0.25 µg/mL | 8 µg/mL (≈ 19.5 µM) | – | – | – | –
CC(=O)NC[C@H]1CN(c2ccc(-c3ccc(CNCc4cnn[nH]4)cc3)c(F)c2)C(=O)O1 [RADEZOLID] | 1 µg/mL (≈ 2.28 µM) | 1 µg/mL (≈ 2.28 µM) | 1 µg/mL (≈ 2.28 µM) | 0.25 µg/mL (≈ 0.57 µM) | 0.5 µg/mL (≈ 1.14 µM) | 0.25 µg/mL (≈ 0.57 µM) | 0.125 µg/mL (≈ 0.285 µM) | ≤ 0.25 µg/mL | 0.5 µg/mL (≈ 1.14 µM) | 0.25 µg/mL | 1 µg/mL (≈ 2.28 µM) | – | – | – | –
CC(=O)NC[C@H]1CN(c2ccc(-c3ccc(CNCc4ccnc5ccccc45)cc3)c(F)c2)C(=O)O1 | – | – | – | 0.5 µg/mL (≈ 1 µM) | 8 µg/mL (≈ 16 µM) | – | – | – | – | – | – | 1 µg/mL (≈ 2.01 µM) | 2 µg/mL (≈ 4.01 µM) | 0.5 µg/mL (≈ 1 µM) | < 20 nM
CC(=O)NC[C@H]1CN(c2ccc(-c3ccc(Cn4ncnn4)cc3)c(F)c2)C(=O)O1 | 1 µg/mL (≈ 2.44 µM) | 8 µg/mL (≈ 19.5 µM) | 0.5 µg/mL (≈ 1.22 µM) | 0.125 µg/mL (≈ 0.305 µM) | 4 µg/mL (≈ 9.75 µM) | 4 µg/mL (≈ 9.75 µM) | 0.125 µg/mL (≈ 0.305 µM) | ≤ 0.25 µg/mL | 0.5 µg/mL (≈ 1.22 µM) | 0.25 µg/mL | 8 µg/mL (≈ 19.5 µM) | – | – | – | –
CC(=O)NC[C@H]1CN(c2ccc(-c3ccc(CNCCCF)cc3)c(F)c2)C(=O)O1 | 2 µg/mL (≈ 4.79 µM) | 4 µg/mL (≈ 9.58 µM) | 1 µg/mL (≈ 2.4 µM) | 0.125 µg/mL (≈ 0.299 µM) | 2 µg/mL (≈ 4.79 µM) | 2 µg/mL (≈ 4.79 µM) | 0.125 µg/mL (≈ 0.299 µM) | 0.5 µg/mL (≈ 1.2 µM) | 1 µg/mL (≈ 2.4 µM) | 0.125 µg/mL | 4 µg/mL (≈ 9.58 µM) | – | – | – | –
CC(=O)NC[C@H]1CN(c2ccc(-c3ccc(CNCc4cnoc4)cc3)c(F)c2)C(=O)O1 | 2 µg/mL (≈ 4.56 µM) | 4 µg/mL (≈ 9.12 µM) | – | 0.125 µg/mL (≈ 0.285 µM) | 2 µg/mL (≈ 4.56 µM) | 1 µg/mL (≈ 2.28 µM) | 0.125 µg/mL (≈ 0.285 µM) | 0.5 µg/mL (≈ 1.14 µM) | 1 µg/mL (≈ 2.28 µM) | 0.125 µg/mL | 8 µg/mL (≈ 18.2 µM) | – | – | – | –
CC(=O)NC[C@H]1CN(c2ccc(N3CCOCC3)c(F)c2)C(=O)O1 [LINEZOLID] | 32 µg/mL (≈ 94.9 µM) | 32 µg/mL (≈ 94.9 µM) | – | – | 16 µg/mL (≈ 47.4 µM) | 16 µg/mL (≈ 47.4 µM) | 1 µg/mL (≈ 2.96 µM) | – | – | – | 32 µg/mL (≈ 94.9 µM) | 8 µg/mL (≈ 23.7 µM) | 32 µg/mL (≈ 94.9 µM) | 1 µg/mL (≈ 2.96 µM) | 4600 nM
CC(=O)NC[C@H]1CN(c2ccc(-c3ccc(Cn4cnnn4)cc3)c(F)c2)C(=O)O1 | 1 µg/mL (≈ 2.44 µM) | 4 µg/mL (≈ 9.75 µM) | 1 µg/mL (≈ 2.44 µM) | 0.25 µg/mL (≈ 0.609 µM) | 2 µg/mL (≈ 4.87 µM) | 2 µg/mL (≈ 4.87 µM) | 0.5 µg/mL (≈ 1.22 µM) | 0.5 µg/mL (≈ 1.22 µM) | 1 µg/mL (≈ 2.44 µM) | 0.5 µg/mL | 8 µg/mL (≈ 19.5 µM) | – | – | – | –
CC(=O)NC[C@H]1CN(c2ccc(-c3ccc(CNCc4ccco4)cc3)c(F)c2)C(=O)O1 | – | – | – | 0.25 µg/mL (≈ 0.571 µM) | 4 µg/mL (≈ 9.14 µM) | – | – | – | – | – | – | 0.5 µg/mL (≈ 1.14 µM) | 4 µg/mL (≈ 9.14 µM) | 0.25 µg/mL (≈ 0.571 µM) | 40 nM
CC(=O)NC[C@H]1CN(c2ccc(-c3ccc(CNCc4ccncc4)cc3)c(F)c2)C(=O)O1 | – | – | – | 0.25 µg/mL (≈ 0.557 µM) | 8 µg/mL (≈ 17.8 µM) | – | – | – | – | – | – | 0.5 µg/mL (≈ 1.11 µM) | 2 µg/mL (≈ 4.46 µM) | 0.5 µg/mL (≈ 1.11 µM) | 50 nM
